Experimental data published in article PMC7224190, “Pharmacological inhibition of PRMT7 links arginine monomethylation to the cellular stress response” (Nature Communications, 2020).

Experiments:
Assay in all cases: biochemical
Parameters in all cases: radiometric methyltransferase assay with tritiated SAM, IC50
PRMT9 = target: T1, PRMT9 (Homo sapiens, UniProt Q6P2P2)
T1 sequence (Q6P2P2 1-845): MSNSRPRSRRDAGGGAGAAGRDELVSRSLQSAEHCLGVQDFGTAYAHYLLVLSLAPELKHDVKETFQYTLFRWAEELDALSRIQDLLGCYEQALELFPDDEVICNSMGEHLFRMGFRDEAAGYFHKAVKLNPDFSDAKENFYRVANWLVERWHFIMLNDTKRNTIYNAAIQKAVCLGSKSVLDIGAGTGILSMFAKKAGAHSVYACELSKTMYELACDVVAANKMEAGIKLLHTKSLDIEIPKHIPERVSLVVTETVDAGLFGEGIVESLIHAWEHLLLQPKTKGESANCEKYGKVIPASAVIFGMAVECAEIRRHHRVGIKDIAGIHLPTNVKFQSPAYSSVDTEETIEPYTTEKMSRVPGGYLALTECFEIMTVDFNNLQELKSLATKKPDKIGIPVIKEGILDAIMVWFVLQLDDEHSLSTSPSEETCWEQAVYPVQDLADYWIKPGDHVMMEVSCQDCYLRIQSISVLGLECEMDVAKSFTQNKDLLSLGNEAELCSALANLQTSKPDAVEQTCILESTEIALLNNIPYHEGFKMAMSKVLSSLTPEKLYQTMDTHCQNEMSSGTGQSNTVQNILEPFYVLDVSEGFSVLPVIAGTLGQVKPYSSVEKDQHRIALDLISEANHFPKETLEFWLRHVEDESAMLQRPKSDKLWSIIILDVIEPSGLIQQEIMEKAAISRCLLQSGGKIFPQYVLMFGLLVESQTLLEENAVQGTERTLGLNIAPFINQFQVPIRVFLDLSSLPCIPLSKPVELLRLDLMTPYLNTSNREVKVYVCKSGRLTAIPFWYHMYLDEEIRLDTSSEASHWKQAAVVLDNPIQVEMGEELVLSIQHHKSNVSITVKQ
Method: (§1) The methyltransferase selectivity was assessed at two compound concentrations of 1 and 10 μM by radiometric assays using tritiated-SAM. For methyltransferases: MLL1, MLL3, EZH1 (PRC2), and EZH2 (PRC2), G9a, GLP, SUV39H1, SUV39H2, SUV420H1, SUV420H2, SETD2, SETD8, SETDB1, SETD7, PRMT1, PRMT3, PRMT4, PRMT5/ MEP50 complex, PRMT6, PRMT7, PRMT8, PRMT9, PRDM9, SMYD2, SMYD3, DNMT1, and BCDIN3D the incorporation of a tritium-labeled methyl group into biotinylated substrate was monitored using scintillation proximity assay (SPA). Briefly, a 10 μL reaction containing ^3H-SAM and substrate at concentrations close to the apparent Km values for each enzyme (balanced conditions) was prepared. The reactions were quenched with 10 μL of 7.5 M guanidine hydrochloride; 180 μL of 20 mM Tris buffer (pH 8.0) were added, and the mixture was transferred to a 96-well FlashPlate and incubated for 1 h. The counts per minute (CPM) was measured on a TopCount plate reader. The CPM in the absence of compound or enzyme was defined as 100% activity and background (0%), respectively, for each dataset[74]–[76]. Selectivity of SGC8158 against 342 kinases was evaluated in a kinase panel TR-FRET assay at 1 and 0.1 μM compound in duplicates as described before. Briefly, tagged kinases were incubated with compound and staurosporine-based fluorescent probe where the binding was detected using Tb conjugated anti-tag antibody energy transfer to the probe. Excitation wavelength was 337 nm and fluorescent emission signal was measured for Tb (486 nm) and fluorescent probe (BODIPY, 515 nm). Specific and non-specific binding was determined in the absence and presence of unlabeled staurosporine. Assays using biotinylated H2B (23–37) as a substrate were performed in buffer (20 mM Tris–HCl, pH 8.5, 0.01% Tween-20, and 5 mM DTT) containing 5 nM PRMT7, 1.1 µM ^3H-SAM (Cat.# NET155V250UC; Perkin Elmer; www.perkinelmer.com) and 0.3 µM H2B (23–37). The reaction mixtures were incubated for 60 min at 23 °C. To stop the enzymatic reactions, 10 µL of 7.5 M guanidine hydrochloride was added, followed by 180 µL of buffer (20 mM Tris, pH 8.0), mixed and then transferred to a 96-well FlashPlate (Cat.# SMP103; Perkin Elmer; www.perkinelmer.com). After mixing, the reaction mixtures in Flash plates were incubated for 1 h and the CPM were measured using Topcount plate reader (Perkin Elmer, www.perkinelmer.com). The CPM counts in the absence of compound for each dataset were defined as 100% activity. In the absence of the enzyme, the CPM counts in each dataset were defined as background (0%). The IC50 values were determined using GraphPad Prism 7 software. For the kinetic analysis of HSPA8 methylation by PRMT7, the assay mixture contained 20 mM Tris–HCl, pH 8.5, 0.01% Tween-20, and 5 mM dithiothreitol (DTT), 1 mM MgCl2, 1 mM ATP where indicated, 250 nM PRMT7, fixed concentration (20 µM) of SAM, various concentrations (up to 40 µM) of HSPA8; or fixed concentration (10 µM) of HSPA8 with different concentrations of SAM (up to 20 µM). […] To determine the mode of action, the experiments were performed in the presence of fixed biotinylated H2B peptide (residues 23–37) or HSPA8 substrate concentration and increasing SAM concentration or at fixed concentration of SAM and varying concentration of the substrate. Twenty µL of reaction mixtures were incubated at 23 °C for 60 min. To stop reactions, 100 µL of 10% trichloroacetic acid (TCA) was added, mixed and transferred to filter-plates (Millipore; cat.# MSFBN6B10; www.millipore.com). Plates were centrifuged at 930 × g (Allegra X-15R—Beckman Coulter, Inc.) for 2 min followed by two additional 10% TCA washes and one ethanol wash followed by centrifugation. Plates were dried and 30 µL MicroScint-O (

PRMT6 = PRMT6 (Homo sapiens, UniProt Q96LA8)
Method: as §1

PRMT8 = PRMT8 (Homo sapiens, UniProt Q9NR22)
Method: as §1

PRMT8, sequence (Q9NR22 whole entry): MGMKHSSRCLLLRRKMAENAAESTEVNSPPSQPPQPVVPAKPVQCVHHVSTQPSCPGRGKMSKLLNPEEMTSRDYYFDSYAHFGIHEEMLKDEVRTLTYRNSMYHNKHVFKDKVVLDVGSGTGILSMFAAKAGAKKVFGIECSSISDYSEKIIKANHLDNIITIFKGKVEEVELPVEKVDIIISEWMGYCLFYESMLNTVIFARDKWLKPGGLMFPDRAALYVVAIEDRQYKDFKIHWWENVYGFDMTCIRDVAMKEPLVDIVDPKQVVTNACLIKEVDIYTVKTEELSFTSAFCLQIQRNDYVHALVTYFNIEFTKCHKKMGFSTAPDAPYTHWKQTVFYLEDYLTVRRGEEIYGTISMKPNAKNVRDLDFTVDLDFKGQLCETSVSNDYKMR
PRMT6, sequence (Q96LA8 whole entry): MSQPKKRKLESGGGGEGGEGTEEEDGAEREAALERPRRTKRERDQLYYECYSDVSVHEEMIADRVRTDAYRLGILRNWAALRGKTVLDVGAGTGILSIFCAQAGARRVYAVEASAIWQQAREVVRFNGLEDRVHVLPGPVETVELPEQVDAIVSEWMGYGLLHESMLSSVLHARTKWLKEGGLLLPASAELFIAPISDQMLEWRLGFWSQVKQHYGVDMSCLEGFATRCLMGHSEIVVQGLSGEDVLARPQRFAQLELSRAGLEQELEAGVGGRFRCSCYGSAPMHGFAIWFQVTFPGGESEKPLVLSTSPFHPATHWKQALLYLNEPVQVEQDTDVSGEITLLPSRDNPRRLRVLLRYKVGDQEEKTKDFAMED

Nc1ncnc2c1ncn2[C@@H]1O[C@H](CSCCCNCc2cccc(-c3ccc(Cl)cc3)c2)[C@@H](O)[C@H]1O [SGC8172]
IC50 (PRMT9): 138 nM | IC50 (PRMT6): ~1200 nM | IC50 (PRMT8): ~1500 nM
